Experimental data: US20110269811A1, “INHIBITORS OF SEMICARBAZIDE-SENSITIVE AMINE OXIDASE (SSAO) AND VAP-1 MEDIATED ADHESION USEFUL FOR TREATMENT AND PREVENTION OF DISEASES” (priority 2006, published 2011)
Where a name gives a salt, the structure may show the parent alone.

Columns and labels:
Human SSAO = target: T1, Human SSAO (Homo sapiens, UniProt Q16853); assay: In vitro inhibition of SSAO activity, human umbilical cord homogenate, 14C-benzylamine; type: biochemical; design: Human SSAO, percent at given concentration: unit of the concentration uncertain; conditions: for IC50: human umbilical cord homogenate, read-out: Human SSAO IC50
T1 construct: rat lung or human umbilical cord homogenates were prepared by chopping the freshly removed tissue; from tissue; host or cells: human umbilical cord homogenate (25,000 g supernatant)
T1 sequence (Q16853 1-763): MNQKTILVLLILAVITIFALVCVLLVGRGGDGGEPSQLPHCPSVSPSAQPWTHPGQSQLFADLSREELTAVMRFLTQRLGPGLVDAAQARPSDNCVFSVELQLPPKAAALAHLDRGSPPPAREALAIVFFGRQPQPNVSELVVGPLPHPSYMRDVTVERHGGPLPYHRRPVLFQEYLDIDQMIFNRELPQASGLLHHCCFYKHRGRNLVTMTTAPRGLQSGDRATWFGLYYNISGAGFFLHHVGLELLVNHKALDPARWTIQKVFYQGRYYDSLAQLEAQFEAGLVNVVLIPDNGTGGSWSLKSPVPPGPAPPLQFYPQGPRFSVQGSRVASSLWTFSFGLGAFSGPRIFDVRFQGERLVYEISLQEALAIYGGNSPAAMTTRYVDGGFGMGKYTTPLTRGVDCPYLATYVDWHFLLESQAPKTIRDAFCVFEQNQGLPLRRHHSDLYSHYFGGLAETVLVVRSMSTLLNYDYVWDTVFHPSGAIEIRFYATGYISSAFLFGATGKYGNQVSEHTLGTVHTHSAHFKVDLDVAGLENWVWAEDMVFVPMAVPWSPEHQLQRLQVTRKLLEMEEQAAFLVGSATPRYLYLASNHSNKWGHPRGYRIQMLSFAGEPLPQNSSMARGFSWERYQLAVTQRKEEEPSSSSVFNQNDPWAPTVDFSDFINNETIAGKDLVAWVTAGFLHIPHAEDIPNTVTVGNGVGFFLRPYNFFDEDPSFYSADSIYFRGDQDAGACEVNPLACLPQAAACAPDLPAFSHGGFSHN
Description: SSAO activity was measured as described (Lizcano J M. Et al. (1998) Biochem J. 331:69). Briefly, rat lung or human umbilical cord homogenates were prepared by chopping the freshly removed tissue into small pieces and washing them thoroughly in PBS. The tissue was then homogenized 1:10 (w/v) for lung or 1:5 (w/v) for umbilical cord, in 10 mM potassium phosphate buffer (pH 7.8). Homogenates were then centrifuged at 1000 g at 4° C. for 10 min (lung) or 25,000 g for 30 min (umbilical cord); the supernatants were kept frozen until ready to use. Lung or umbilical cord homogenate was preincubated with clorgyline and pargyline at 1 μM to inhibit MAO-A and -B activity, respectively, and SSAO inhibitors were generally present at 1 nM-10 μM. The reaction was initiated by addition of 20 μM ^14C— benzylamine as substrate. The reaction was carried out at 37° C. in a final volume of 400 μL of 100 mM potassium phosphate buffer (pH 7.2) and stopped with 100 μl of 2M citric acid. Radioactively labeled products were extracted into toluene/ethyl acetate (1:1, v/v) containing 0.6% (w/v) 2,5-diphenyloxazole (PPO) before liquid scintillation counting.

Compound | melting point | also measured
NC/C(=C\F)CCc1cccc(F)c1.O=C(O)C(F)(F)F | 47 to 48 °C | –
NC/C(=C/F)CCc1cccc(F)c1.O=C(O)C(F)(F)F | 72 to 73 °C | –
NC/C(=C/F)CCc1cc(F)cc(C(F)(F)F)c1.O=C(O)C(F)(F)F | 58 to 59 °C | –
COc1ccc(C/C(=C\F)CN)cc1OC.Cl | 204 to 205 °C | –
COc1ccc(C/C(=C/F)CN)cc1OC.Cl | 220 to 221 °C | –
COc1cccc(CC/C=C(/F)CN)c1.Cl | 112 to 113 °C | –
NCC(=CF)Cc1cccc(O)c1 (as salt: citrate) | 145 to 146 °C | –
CSc1cccc(C/C(=C/F)CN)c1 (as salt: hydrochloride) | 145 to 146 °C | –
Cc1ccc(C/C(=C/F)CN)cc1 (as salt: hydrochloride) | 150 to 151 °C | –
NC/C(=C\F)Cc1ccc(-c2ccccc2)cc1 (as salt: hydrochloride) | 219 to 220 °C | –
NC/C(=C\F)Cc1ccc(F)cc1 (as salt: hydrochloride) | 139 to 140 °C | –
NC/C(=C\F)Cc1cccc(C(F)(F)F)c1 (as salt: hydrochloride) | 161 to 162 °C | –
Cc1ccc(C/C(=C/F)CN)cc1F (as salt: hydrochloride) | 160 to 161 °C | –
Cc1cc(C/C(=C/F)CN)ccc1F (as salt: hydrochloride) | 158 to 159 °C | –
NC/C(=C\F)Cc1cc(F)cc(Cl)c1 (as salt: hydrochloride) | 158 to 159 °C | –
NC/C(=C\F)Cc1ccc(F)cc1F (as salt: hydrochloride) | 130 to 131 °C | –
NC/C(=C\F)Cc1cc(Cl)cc(Cl)c1 (as salt: hydrochloride) | 184 to 185 °C | –
NC/C(=C\F)Cc1ccc(F)c(F)c1 (as salt: hydrochloride) | 141 to 142 °C | –
NC/C(=C\F)Cc1cccc(Cl)c1 (as salt: hydrochloride) | 145 to 146 °C | –
NC/C(=C/Cl)CCc1ccccc1 (as salt: hydrochloride) | 97 to 98 °C | –
NC/C(=C/Cl)CCc1ccc(C(F)(F)F)cc1 (as salt: hydrochloride) | 89 to 90 °C | –

Compound | melting point | also measured
COc1cc(C/C(=C/F)CN)cc(OC)c1 (as salt: hydrochloride) | 194 to 195 °C | –
COCc1cccc(C/C=C(/F)CN)c1 (as salt: hydrochloride) | 165 to 166 °C | –
CCCCOc1ccc(CC/C(=C/Cl)CN)cc1 (as salt: hydrochloride) [Compound I-36, (Z)-3-Chloro-2-(4-n-butoxyphenylethyl)allylamine hydrochloride] | 133 to 134 °C | –
CS(=O)(=O)c1ccc(C/C(=C/F)CN)cc1 (as salt: trifluoroacetate) | 49 to 50 °C | –
NC/C(=C\Cl)CCc1ccc(F)cc1 (as salt: trifluoroacetate) | 69 to 70 °C | –
NC/C(=C\Cl)CCc1ccc(Cl)cc1 (as salt: trifluoroacetate) | 89 to 90 °C | –
Cc1ccc(CC/C(=C/Cl)CN)cc1.Cl [Compound I-39-Z, (Z)-3-Chloro-2-(4-methylphenylethyl)allylamine hydrochloride] | 135 °C (dec.) | IC50 (Human SSAO): 1.2 µM
NC/C(=C/Cl)CCc1ccc(F)cc1.O=C(O)C(F)(F)F [Compound I-42-Z, (E)-3-Chloro-2-(4-fluorophenylethyl)allylamine trifluoroacetate] | 52 to 53 °C | Human SSAO, percent at given concentration (Human SSAO; @8 (unit uncertain)): 73%@8 mM
NC/C(=C/Cl)CCc1ccc(Cl)cc1.O=C(O)C(F)(F)F [Compound I-43-Z, (E)-3-Chloro-2-(4-chlorophenylethyl)allylamine trifluoroacetate] | 68 to 70 °C | IC50 (Human SSAO): 1.4 µM
Cc1cccc(CC/C(=C\Cl)CN)c1.Cl [Compound I-48-E, (E)-3-Chloro-2-(3-methylphenylethyl)allylamine hydrochloride] | 95 to 97 °C | IC50 (Human SSAO): 10 µM
COc1cccc(CC/C(=C\Cl)CN)c1.Cl [Compound I-49-E, (E)-3-Chloro-2-(3-methoxyphenylethyl)allylamine hydrochloride] | 85 to 87 °C | IC50 (Human SSAO): 5.5 µM
Cc1ccc(CC/C(=C\Cl)CN)cc1.Cl [Compound I-50-E, (E)-3-Chloro-2-(4-methylphenylethyl)allylamine hydrochloride] | 124 to 125 °C | IC50 (Human SSAO): 1 µM
Cl.NC/C(=C/Cl)CCc1cc(F)cc(C(F)(F)F)c1 [Compound I-51-E, (E)-3-Chloro-2-(3-fluoro-5-trifluoromethylphenylethyl)allylamine hydrochloride] | 96 to 97 °C | Human SSAO, percent at given concentration (Human SSAO; @40 (unit uncertain)): 33%@40 mM
Cl.NC/C(F)=C\Cc1cc(C(F)(F)F)cc(C(F)(F)F)c1 [II-12-E, (E)-2-Fluoro-4-(3,5-ditrifluoromethylphenyl)-2-butenylamine hydrochloride] | 197 to 198 °C | Human SSAO, percent at given concentration (Human SSAO; @7 (unit uncertain)): 55%@7 mM
COc1ccccc1C/C=C(/F)CN.Cl [II-17-E, (E)-2-Fluoro-4-(2-methoxyphenyl)-2-butenylamine hydrochloride] | 133 to 134 °C | IC50 (Human SSAO): 4.5 µM
COc1cccc(C(C)/C=C(/F)CN)c1.Cl (centres unmarked) [II-18-E] | 133 to 134 °C | –
NCC(=O)CCc1ccc(F)cc1 [IV-1, 1-amino-4-(4-fluorophenyl)butan-2-one] | – | Human SSAO, percent at given concentration (Human SSAO; @8 (unit uncertain)): 45%@8 mM
COc1ccc(CCC(=O)CN)cc1 [IV-3, 1-amino-4-(4-methoxyphenyl)butan-2-one] | – | IC50 (Human SSAO): 3 µM
COc1cccc(CCC(=O)CN)c1 [IV-8, 1-amino-4-(3-methoxyphenyl)butan-2-one] | – | IC50 (Human SSAO): 3.7 µM
NCC(=O)CCc1cc(F)cc(C(F)(F)F)c1 [IV-10, 1-amino-4-(3-fluoro-5-(trifluoromethyl)phenyl)butan-2-one] | – | IC50 (Human SSAO): 1.5 µM

More lines, main results first:

melting point | Compound | also measured
118 to 119 °C | Cc1cccc(C/C(=C/F)CN)c1 (as salt: hydrochloride) [Compound I-13, (Z)-3-Fluoro-2-(3-methylbenzyl)allylamine hydrochloride] | –
170 °C (dec.) | COc1ccc(C/C(=C/F)CN)cc1F (as salt: hydrochloride) [Compound I-21, (Z)-3-Fluoro-2-(3-fluoro-4-methoxybenzyl)allylamine hydrochloride] | –
163 to 164 °C | NC/C(=C\F)Cc1ccc(F)c(Cl)c1 (as salt: hydrochloride) [Compound I-23, (Z)-3-Fluoro-2-(3-chloro-4-fluorobenzyl)allylamine hydrochloride] | –
105 to 106 °C | NC/C(=C\F)Cc1cc(F)ccc1F (as salt: hydrochloride) [Compound I-24, (Z)-3-Fluoro-2-(2,5-difluorobenzyl)allylamine hydrochloride] | –
123 to 124 °C | COc1ccc(CC/C(=C/Cl)CN)cc1 (as salt: hydrochloride) [Compound I-33, (Z)-3-Chloro-2-(4-methoxyphenylethyl)allylamine hydrochloride] | –
160 to 162 °C | CCOc1ccc(CC/C(=C/Cl)CN)cc1 (as salt: hydrochloride) [Compound I-34, (Z)-3-Chloro-2-(4-ethoxyphenylethyl)allylamine hydrochloride] | –
102 to 103 °C | Cc1cccc(CC/C(=C/Cl)CN)c1 (as salt: hydrochloride) [Compound I-37, (Z)-3-Chloro-2-(3-methylphenylethyl)allylamine hydrochloride] | –
139 to 140 °C | COc1cccc(CC/C(=C/Cl)CN)c1 (as salt: hydrochloride) [Compound I-38, (Z)-3-Chloro-2-(3-methoxyphenylethyl)allylamine hydrochloride] | –
145 to 147 °C | NC/C(F)=C\Cc1cccc(C(F)(F)F)c1 (as salt: hydrochloride) [II-2, (E)-2-Fluoro-4-(3-trifluoromethylphenyl)-2-butenylamine hydrochloride] | –
